ChEMBL document CHEMBL1201862, “PubChem BioAssay data set” (2004)
The source made the active and inactive calls.

Legend:
[1] = molecular target: T1, Sphingosine 1-phosphate receptor 4 (Homo sapiens, UniProt O95977); assay: Late-stage fluorescence-based dose-response cell-based counterscreen assay to identify agonists of the Sphingosine 1-Phosphate Receptor 3 (S1P3): Sphingosine 1-Phosphate Receptor 4 (S1P4) agonist assay.; assay type: functional
T1 sequence (O95977 whole entry): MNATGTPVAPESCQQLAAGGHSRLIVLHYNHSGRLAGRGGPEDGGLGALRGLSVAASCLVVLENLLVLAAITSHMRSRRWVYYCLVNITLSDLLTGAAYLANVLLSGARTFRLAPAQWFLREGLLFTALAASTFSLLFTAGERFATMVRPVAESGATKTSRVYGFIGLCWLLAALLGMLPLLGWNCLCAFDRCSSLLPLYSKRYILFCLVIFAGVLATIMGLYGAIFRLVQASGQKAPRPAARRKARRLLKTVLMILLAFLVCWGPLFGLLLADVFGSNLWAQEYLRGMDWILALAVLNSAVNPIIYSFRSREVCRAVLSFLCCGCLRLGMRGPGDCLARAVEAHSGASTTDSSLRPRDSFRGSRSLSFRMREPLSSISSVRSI

[2] = molecular target: Sphingosine 1-phosphate receptor 2 (Homo sapiens, UniProt O95136); assay: Late-stage fluorescence-based dose-response cell-based counterscreen assay to identify agonists of the Sphingosine 1-Phosphate Receptor 3 (S1P3): Sphingosine 1-Phosphate Receptor 2 (S1P2) agonist assay.; assay type: functional
[3] = molecular target: Latent membrane protein 1 (Human herpesvirus 4 (strain B95-8), UniProt P03230); assay: TES1-eGFP NF-kB reporter inhibition versus Tet-On dsRED, dose response, selectivity assay for LMP1 NF-kB inhibitor project, imaging, HEK293T, dual-color eGFP/dsRED, cherry-picks (AID 588398); assay type: functional, cell-based
[4] = molecular target: T2, Microphthalmia-associated transcription factor (Homo sapiens, UniProt O75030); assay: TRPM1 promoter luciferase signal decrease, dose response, MITF inhibitor project, cell-based, SK-MEL-5, cherry-picked, set 3 (AID 493073); assay type: functional
T2 sequence (O75030 whole entry): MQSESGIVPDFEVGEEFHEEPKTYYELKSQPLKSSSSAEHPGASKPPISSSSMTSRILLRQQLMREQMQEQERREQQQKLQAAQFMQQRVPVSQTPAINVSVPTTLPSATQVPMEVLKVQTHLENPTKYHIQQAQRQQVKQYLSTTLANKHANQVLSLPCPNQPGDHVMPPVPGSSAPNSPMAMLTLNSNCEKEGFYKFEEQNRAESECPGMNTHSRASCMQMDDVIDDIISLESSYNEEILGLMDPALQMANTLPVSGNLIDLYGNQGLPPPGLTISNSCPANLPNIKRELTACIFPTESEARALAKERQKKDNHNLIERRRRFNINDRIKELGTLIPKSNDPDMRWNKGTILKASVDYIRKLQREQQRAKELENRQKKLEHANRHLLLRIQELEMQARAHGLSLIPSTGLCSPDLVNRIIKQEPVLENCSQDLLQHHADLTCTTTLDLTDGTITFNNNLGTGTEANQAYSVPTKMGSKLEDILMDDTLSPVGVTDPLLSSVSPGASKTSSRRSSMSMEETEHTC

HEK293 = assay: inhibitors of LMP1-driven NF-kB reporter, dose response, cell-based, HEK293, luciferase, cherry-pick (AID 588343); assay type: functional; conditions: Homo sapiens
[5] = A cytotoxicity screen of small molecule inhibitors of the PhoP region in Salmonella typhi identified in the primary screen. [Related pubchem assays: 1850, 1864, 1985 ]; assay type: functional
[6] = molecular target: High affinity nerve growth factor receptor (Homo sapiens, UniProt P04629); assay type: functional;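 also: NTRK1 tested as one member of a kinome-wide profiling panel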
Aurora kinase A = Aurora kinase A (Homo sapiens, UniProt O14965); assay type: functional;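 also: value from the Navigating the Kinome kinase panel profiling, panel entry STK6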
Sequence of Aurora kinase A (O14965 whole entry): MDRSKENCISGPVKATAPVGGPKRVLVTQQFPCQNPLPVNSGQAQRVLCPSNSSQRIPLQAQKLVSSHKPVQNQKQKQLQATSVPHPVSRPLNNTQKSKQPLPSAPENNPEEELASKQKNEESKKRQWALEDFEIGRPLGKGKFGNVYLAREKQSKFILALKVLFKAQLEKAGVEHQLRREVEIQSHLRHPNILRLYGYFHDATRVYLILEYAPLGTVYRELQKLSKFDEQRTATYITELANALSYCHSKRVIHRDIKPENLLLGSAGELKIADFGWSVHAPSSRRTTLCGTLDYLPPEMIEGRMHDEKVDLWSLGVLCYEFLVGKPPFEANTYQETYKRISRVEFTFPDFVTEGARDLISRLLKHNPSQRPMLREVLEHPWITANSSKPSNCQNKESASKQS

Sequence of Latent membrane protein 1 (P03230 whole entry): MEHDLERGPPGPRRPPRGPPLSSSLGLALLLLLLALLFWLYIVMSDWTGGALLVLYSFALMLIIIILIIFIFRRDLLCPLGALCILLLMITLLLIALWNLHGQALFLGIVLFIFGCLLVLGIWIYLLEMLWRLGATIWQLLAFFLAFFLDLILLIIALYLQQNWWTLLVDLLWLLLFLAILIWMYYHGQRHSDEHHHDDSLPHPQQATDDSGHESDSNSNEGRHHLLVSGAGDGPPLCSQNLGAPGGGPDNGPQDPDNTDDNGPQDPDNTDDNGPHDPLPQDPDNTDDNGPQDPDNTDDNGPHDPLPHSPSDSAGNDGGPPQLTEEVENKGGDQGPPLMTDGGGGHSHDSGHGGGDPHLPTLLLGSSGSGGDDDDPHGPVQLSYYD
Sequence of High affinity nerve growth factor receptor (P04629 whole entry): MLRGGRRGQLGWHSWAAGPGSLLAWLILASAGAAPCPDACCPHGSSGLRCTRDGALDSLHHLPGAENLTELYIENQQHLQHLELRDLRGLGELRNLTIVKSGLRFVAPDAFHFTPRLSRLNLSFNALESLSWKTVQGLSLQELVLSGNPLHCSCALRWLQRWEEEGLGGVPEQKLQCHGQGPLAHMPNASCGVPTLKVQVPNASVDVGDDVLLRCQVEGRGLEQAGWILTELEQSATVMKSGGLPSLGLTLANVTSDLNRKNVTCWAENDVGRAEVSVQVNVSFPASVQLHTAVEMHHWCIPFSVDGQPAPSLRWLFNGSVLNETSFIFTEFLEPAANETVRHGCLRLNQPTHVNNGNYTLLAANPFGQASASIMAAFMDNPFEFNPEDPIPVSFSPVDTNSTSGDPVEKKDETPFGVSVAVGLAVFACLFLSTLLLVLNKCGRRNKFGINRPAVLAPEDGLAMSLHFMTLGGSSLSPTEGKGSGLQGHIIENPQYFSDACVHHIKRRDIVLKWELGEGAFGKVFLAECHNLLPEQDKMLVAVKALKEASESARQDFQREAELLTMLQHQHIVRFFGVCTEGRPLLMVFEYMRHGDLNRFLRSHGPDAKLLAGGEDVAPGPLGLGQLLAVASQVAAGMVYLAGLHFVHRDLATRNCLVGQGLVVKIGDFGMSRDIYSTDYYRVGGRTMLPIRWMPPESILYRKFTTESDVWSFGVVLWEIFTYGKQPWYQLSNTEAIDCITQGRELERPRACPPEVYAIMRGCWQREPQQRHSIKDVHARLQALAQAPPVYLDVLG
Sequence of Sphingosine 1-phosphate receptor 2 (O95136 whole entry): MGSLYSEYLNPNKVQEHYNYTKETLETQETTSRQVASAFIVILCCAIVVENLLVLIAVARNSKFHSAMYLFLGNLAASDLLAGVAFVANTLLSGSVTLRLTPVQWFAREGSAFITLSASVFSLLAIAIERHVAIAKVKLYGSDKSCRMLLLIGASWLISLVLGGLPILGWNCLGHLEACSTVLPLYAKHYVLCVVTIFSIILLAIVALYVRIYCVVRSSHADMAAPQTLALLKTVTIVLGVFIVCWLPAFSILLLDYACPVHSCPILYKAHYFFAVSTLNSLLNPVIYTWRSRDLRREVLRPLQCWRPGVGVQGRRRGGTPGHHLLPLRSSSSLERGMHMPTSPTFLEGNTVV

Question: For CCOc1ccc(-c2nc(C(=O)N(C3CCCCC3)C3CCCCC3)co2)cc1OCC, which EC50 [1] is on record?
Answer: > 50 µM (inactive)

Question: And the EC50 [2]?
Answer: > 50 µM (inactive)

Question: Which AC50 [3] does the source give for Cc1cc(NCCCn2ccnc2)n2ncc(-c3ccccc3)c2n1 here?
Answer: 206 µM (active)

Question: What about the AC50 [4] of the same compound?
Answer: 11 µM (active)

Question: What about the AC50 (HEK293) of the same compound?
Answer: 2.56 µM (active)

Question: And the EC50 [5]?
Answer: > 50 µM (active)

Question: What does the source list for CCOC(=O)C(C(N)=O)C(=S)Nc1ccc(C)cc1 (stereo not drawn)?
Answer: Ki [6]: 5.01 µM (active); Ki (Aurora kinase A): 0.0501 µM (active)
